Assay results taken from paper PMC2931804 (Clinical cancer research : an official journal of the …, 2010).
Like-named read-outs stand apart in the source and are kept apart here.

[1] = DL1 500 mg twice daily × 3 + sLV5FU2, 1st cycle, n = 3
[2] = DL1 500 mg twice daily × 3 + sLV5FU2, Any cycle, n = 3
[3] = DL1 600 mg once daily × 3 + sLV5FU2, 1st cycle, n = 3
[4] = DL1 600 mg once daily × 3 + sLV5FU2, Any cycle, n = 3
[5] = DL2 600 mg twice daily × 3 + sLV5FU2, 1st cycle, n = 6
[6] = DL2 600 mg twice daily × 3 + sLV5FU2, Any cycle, n = 6
[7] = DL2 800 mg once daily × 3 + sLV5FU2, 1st cycle, n = 3
[8] = DL2 800 mg once daily × 3 + sLV5FU2, Any cycle, n = 3
[9] = DL3 800 mg twice daily × 3 + sLV5FU2, 1st cycle, n = 3
[10] = DL3 800 mg twice daily × 3 + sLV5FU2, Any cycle, n = 3

In the case of `O=C(CCCCCCC(=O)Nc1ccccc1)NO` [vorinostat, suberoylanilide hydroxamic acid], the Dose-limiting toxicities (800 mg vorinostat twice-daily dose level + sLV5FU2) was “Grade 3 fatigue and mucositis”, the Dose-limiting toxicities (2,000 mg vorinostat once-daily dose level + sLV5FU2) was “Grade 3 fatigue, and hand and foot syndrome” and the “ATE, treatment-related, patients (G2/G3/G4)” value (“ATE, treatment-related” for short) [1] was 0/0/0. The “Anemia, treatment-related, patients (G2/G3/G4)” value (shortened to “Anemia, treatment-related”) [1] was 0/0/0, the “Anorexia, treatment-related, patients (G2/G3/G4)” value (shortened to “Anorexia, treatment-related”) [1] was 0/0/0 and the “Chelitis, treatment-related, patients (G2/G3/G4)” value (“Chelitis, treatment-related” for short) [1] was 0/0/0. For the same compound, the “Dehydration, treatment-related, patients (G2/G3/G4)” value (“Dehydration, treatment-related” below) [1] was 0/0/0, the “Diarrhea, treatment-related, patients (G2/G3/G4)” value (from here on “Diarrhea, treatment-related”) [1] was 1/0/0 and the “Esophagitis, treatment-related, patients (G2/G3/G4)” value (“Esophagitis, treatment-related” below) [1] was 0/0/0. For the same compound, the “Fatigue, treatment-related, patients (G2/G3/G4)” value (from here on “Fatigue, treatment-related”) [1] was 2/0/0, the “Fever, treatment-related, patients (G2/G3/G4)” value (“Fever, treatment-related” for short) [1] was 0/0/0 and the “Headache, treatment-related, patients (G2/G3/G4)” value (“Headache, treatment-related” for short) [1] was 0/0/0. For the same compound, the “Mucositis, treatment-related, patients (G2/G3/G4)” value (“Mucositis, treatment-related” below) [1] was 0/0/0, the “Nausea, treatment-related, patients (G2/G3/G4)” value (from here on “Nausea, treatment-related”) [1] was 1/0/0 and the “Neutropenia, treatment-related, patients (G2/G3/G4)” value (“Neutropenia, treatment-related” below) [1] was 0/0/0. For the same compound, the “Thrombocytopenia, treatment-related, patients (G2/G3/G4)” value (“Thrombocytopenia, treatment-related” below) [1] was 0/0/0, the “VTE, treatment-related, patients (G2/G3/G4)” value (“VTE, treatment-related” for short) [1] was 0/0/0 and the “Vomiting, treatment-related, patients (G2/G3/G4)” value (“Vomiting, treatment-related” for short) [1] was 1/0/0. The “ATE, treatment-related” value [2] was 0/0/0, the “Anemia, treatment-related” value [2] was 0/0/0 and the “Anorexia, treatment-related” value [2] was 2/0/0. For the same compound, the “Chelitis, treatment-related” value [2] was 0/0/0, the “Dehydration, treatment-related” value [2] was 0/0/0 and the “Diarrhea, treatment-related” value [2] was 1/0/0. For the same compound, the “Esophagitis, treatment-related” value [2] was 1/0/0, the “Fatigue, treatment-related” value [2] was 3/0/0 and the “Fever, treatment-related” value [2] was 1/0/0. For the same compound, the “Headache, treatment-related” value [2] was 0/0/0, the “Mucositis, treatment-related” value [2] was 1/0/0 and the “Nausea, treatment-related” value [2] was 2/0/0. For the same compound, the “Neutropenia, treatment-related” value [2] was 0/0/0, the “Thrombocytopenia, treatment-related” value [2] was 0/0/0 and the “VTE, treatment-related” value [2] was 0/0/0. For the same compound, the “Vomiting, treatment-related” value [2] was 1/0/0, the “Anemia, treatment-related” value [3] was 1/0/0 and the “Anorexia, treatment-related” value [3] was 1/0/0. The “DVT/PE, treatment-related, patients (G2/G3/G4)” value (from here on “DVT/PE, treatment-related”) [3] was 0/0/0, the “Dehydration, treatment-related” value [3] was 0/0/0 and the “Diarrhea, treatment-related” value [3] was 0/0/0. The “Fatigue, treatment-related” value [3] was 1/0/0, the “GI bleed, treatment-related, patients (G2/G3/G4)” value (from here on “GI bleed, treatment-related”) [3] was 0/0/0 and the “Hand and Foot, treatment-related, patients (G2/G3/G4)” value (“Hand and Foot, treatment-related” below) [3] was 0/0/0. The “Infection, treatment-related, patients (G2/G3/G4)” value (“Infection, treatment-related” below) [3] was 0/0/0, the “Mucositis, treatment-related” value [3] was 0/0/0 and the “Nausea, treatment-related” value [3] was 1/0/0. For the same compound, the “Neutropenia, treatment-related” value [3] was 0/0/0, the “Thrombocytopenia, treatment-related” value [3] was 1/0/0 and the “Vomiting, treatment-related” value [3] was 0/0/0. The “Weight Loss, treatment-related, patients (G2/G3/G4)” value (“Weight Loss, treatment-related” below) [3] was 0/0/0, the “Anemia, treatment-related” value [4] was 1/0/0 and the “Anorexia, treatment-related” value [4] was 1/0/0. The “Creatinine, treatment-related, patients (G2/G3/G4)” value [4] was 1/0/0, the “DVT/PE, treatment-related” value [4] was 0/0/0 and the “Dehydration, treatment-related” value [4] was 1/0/0. The “Diarrhea, treatment-related” value [4] was 0/1/0, the “Fatigue, treatment-related” value [4] was 2/0/0 and the “GI bleed, treatment-related” value [4] was 0/0/0. The “Hand and Foot, treatment-related” value [4] was 0/0/0, the “Infection, treatment-related” value [4] was 0/0/0 and the “Mucositis, treatment-related” value [4] was 2/0/0. The “Nausea, treatment-related” value [4] was 1/0/0, the “Neutropenia, treatment-related” value [4] was 0/0/0 and the “Thrombocytopenia, treatment-related” value [4] was 1/0/0. For the same compound, the “Vomiting, treatment-related” value [4] was 1/0/0, the “Weight Loss, treatment-related” value [4] was 0/0/0 and the DLT (DL1 (500 mg twice daily × 3) and DL2 (600 mg twice daily), three patients each) was “without any DLT”. For the same compound, the “ATE, treatment-related” value [5] was 0/0/0, the “Anemia, treatment-related” value [5] was 1/0/0 and the “Anorexia, treatment-related” value [5] was 2/0/0. The “Chelitis, treatment-related” value [5] was 0/0/0, the “Dehydration, treatment-related” value [5] was 0/0/0 and the “Diarrhea, treatment-related” value [5] was 1/0/0. The “Esophagitis, treatment-related” value [5] was 0/0/0, the “Fatigue, treatment-related” value [5] was 3/0/0 and the “Fever, treatment-related” value [5] was 0/0/0. For the same compound, the “Headache, treatment-related” value [5] was 0/0/0, the “Mucositis, treatment-related” value [5] was 0/0/0 and the “Nausea, treatment-related” value [5] was 3/0/0. For the same compound, the “Neutropenia, treatment-related” value [5] was 0/0/0, the “Thrombocytopenia, treatment-related” value [5] was 0/1/0 and the “VTE, treatment-related” value [5] was 0/0/0. For the same compound, the “Vomiting, treatment-related” value [5] was 1/0/0, the “ATE, treatment-related” value [6] was 0/0/0 and the “Anemia, treatment-related” value [6] was 1/1/0. The “Anorexia, treatment-related” value [6] was 2/0/0, the “Chelitis, treatment-related” value [6] was 0/0/0 and the “Dehydration, treatment-related” value [6] was 2/0/0. For the same compound, the “Diarrhea, treatment-related” value [6] was 1/0/0, the “Esophagitis, treatment-related” value [6] was 0/0/0 and the “Fatigue, treatment-related” value [6] was 3/1/0. The “Fever, treatment-related” value [6] was 0/0/1, the “Headache, treatment-related” value [6] was 0/1/0 and the “Mucositis, treatment-related” value [6] was 0/0/0. The “Nausea, treatment-related” value [6] was 3/0/0, the “Neutropenia, treatment-related” value [6] was 0/0/0 and the “Thrombocytopenia, treatment-related” value [6] was 0/0/1. For the same compound, the “VTE, treatment-related” value [6] was 0/0/0, the “Vomiting, treatment-related” value [6] was 1/0/0 and the “Patients with DLT” value (DL2 600 mg twice daily × 3 + sLV5FU2, six patients) was “None and without any DLT”. For the same compound, the “Anemia, treatment-related” value [7] was 1/0/0, the “Anorexia, treatment-related” value [7] was 1/0/0 and the “Creatinine, treatment-related, patients (G2/G3/G4)” value [7] was 1/0/0. The “DVT/PE, treatment-related” value [7] was 0/0/0, the “Dehydration, treatment-related” value [7] was 0/0/0 and the “Diarrhea, treatment-related” value [7] was 0/0/0. For the same compound, the “Fatigue, treatment-related” value [7] was 1/0/0, the “GI bleed, treatment-related” value [7] was 0/0/0 and the “Hand and Foot, treatment-related” value [7] was 0/0/0. For the same compound, the “Infection, treatment-related” value [7] was 0/0/0, the “Mucositis, treatment-related” value [7] was 0/0/0 and the “Nausea, treatment-related” value [7] was 1/0/0. The “Neutropenia, treatment-related” value [7] was 0/0/0, the “Thrombocytopenia, treatment-related” value [7] was 1/0/0 and the “Vomiting, treatment-related” value [7] was 0/0/0. For the same compound, the “Weight Loss, treatment-related” value [7] was 0/0/0, the “Anemia, treatment-related” value [8] was 1/0/0 and the “Anorexia, treatment-related” value [8] was 2/0/0. The “DVT/PE, treatment-related” value [8] was 0/0/0, the “Dehydration, treatment-related” value [8] was 0/0/0 and the “Diarrhea, treatment-related” value [8] was 1/0/0. For the same compound, the “Fatigue, treatment-related” value [8] was 2/0/0, the “GI bleed, treatment-related” value [8] was 0/0/0 and the “Hand and Foot, treatment-related” value [8] was 0/0/0. The “Infection, treatment-related” value [8] was 0/0/0, the “Mucositis, treatment-related” value [8] was 0/0/0 and the “Nausea, treatment-related” value [8] was 2/0/0. For the same compound, the “Neutropenia, treatment-related” value [8] was 0/0/0, the “Thrombocytopenia, treatment-related” value [8] was 1/0/0 and the “Vomiting, treatment-related” value [8] was 0/0/0. The “Weight Loss, treatment-related” value [8] was 0/0/0, the “ATE, treatment-related” value [9] was 0/0/0 and the “Anemia, treatment-related” value [9] was 0/0/0. For the same compound, the “Anorexia, treatment-related” value [9] was 1/0/0, the “Chelitis, treatment-related” value [9] was 1/0/0 and the “Dehydration, treatment-related” value [9] was 2/0/0. For the same compound, the “Diarrhea, treatment-related” value [9] was 1/0/0, the “Esophagitis, treatment-related” value [9] was 1/0/0 and the “Fever, treatment-related” value [9] was 0/0/0. The “Headache, treatment-related” value [9] was 0/0/0, the “Nausea, treatment-related” value [9] was 0/0/0 and the “Neutropenia, treatment-related” value [9] was 0/0/0. The “Thrombocytopenia, treatment-related” value [9] was 3/0/0, the “VTE, treatment-related” value [9] was 0/0/0 and the “Vomiting, treatment-related” value [9] was 0/0/0. The “ATE, treatment-related” value [10] was 0/0/1, the “Anemia, treatment-related” value [10] was 0/2/0 and the “Anorexia, treatment-related” value [10] was 2/0/0. For the same compound, the “Chelitis, treatment-related” value [10] was 2/0/0, the “Dehydration, treatment-related” value [10] was 2/0/0 and the “Diarrhea, treatment-related” value [10] was 0/1/0. The “Esophagitis, treatment-related” value [10] was 1/0/0, the “Fatigue, treatment-related” value [10] was 1/2/0 and the “Fever, treatment-related” value [10] was 0/0/0. For the same compound, the “Headache, treatment-related” value [10] was 0/0/0 and the “Mucositis, treatment-related” value [10] was 2/1/1.
